A word on the solubility: it is the dissolved amount per volume that the medium holds.

Data set [1] can be described thus: Solubility of the compound in aqueous medium at pH 7. It is filed as physicochemical.
A short description of data set [2]: Intrinsic clearance in rat liver microsomes assessed per mg protein. The format is ADME, microsome. Conditions: read-out: CLH. Background: Microsomes from liver hold many membrane-bound enzymes, among them those of drug oxidation.
Data set [3] is described as follows: Plasma concentration in Wistar rat at 100 mg/kg, po measured after 1 hr. The format is ADME, organism-based.
Data set [4] can be described thus: Unbound plasma concentration in Wistar rat at 100 mg/kg, po measured after 1 hr. The format is ADME, organism-based. Conditions: in vivo.
A short description of data set [5]: Drug level in Wistar rat brain at 100 mg/kg, po measured after 1 hr. The format is ADME, organism-based. The note with it: read-out: Drug uptake.

≈ marks a conversion by molar mass, not a printed value.

Regarding `CCN(CC)CCc1c(C(=O)NCc2ccccc2OCC(F)(F)F)nn(-c2ccccc2)c1-c1ccccc1`, in data set [1] (buffer), the solubility entry is “Soluble”.
As for `CCNCCc1c(C(=O)NCc2ccccc2OCC(F)(F)F)nn(-c2ccccc2)c1-c1ccccc1`, the solubility in data set [1] (aqueous medium, read-out: solubility) was 429 µg/mL (≈ 821 µM). In addition, the microsomal CLint in data set [2] was found to be 377 µL/min/mg. Besides, the concentration at 1 h in data set [3] was 810 nM; in data set [5], 80 nM. Further, in data set [4], the “Cp(f)” value worked out at 4.9 nM.
In the case of `O=C(NCc1ccccc1OCC(F)(F)F)c1nn(-c2ccccc2)c(-c2ccccc2)c1CCNC1CC1`, the solubility entry in data set [1] (buffer) is given as “Soluble”.

The values above are taken from ChEMBL document CHEMBL4177627, “Discovery and evaluation of Cav3.1-selective T-type calcium channel blockers” (Bioorg Med Chem Lett, 2017).
